Assay results: patent publication US8889887B2, “Pentamethine cyanine fluorescent dyes, preparation methods and uses thereof” (Dalian University of Technology, priority 2011, dated 2014)
Values joined by “and” are separate entries in the source; they are usually repeats but may differ in a detail not shown here. Equal entries are not always repeated. Structures can show the parent of a compound that is named as a salt.

Tests used:
Type in all cases: physicochemical
[1] = Fluorescence lifetime in solutions with different viscosity
Method: (§1) Firstly, DMSO solutions of 4 and 7 having a concentration of 1.0×10^−3 M were prepared, respectively. The stock solution of […] was added into 10 mL glycerol-ethanol mixture, and ultrasonicated to remove bubbles. The solution stayed for 1 hour, and then absorption and emission spectra therefore were measured by using UV-visible spectrophotometer and fluorescence spectrophotometer, and fluorescence lifetime of solution with different viscosity was detected as well. UV-visible spectrophotometer, model: Hp8453; fluorescence spectrophotometer model: FP-6500; Fluorescence lifetime equipment: Horiba Jobin Yvon Fluoromax-4-p.
(§2) Glycerol-ethanol mixture was a mixture of glycerol and ethanol, Vglycerol: Vethanol were 1:9, 2:8, 3:7, 4:6, 5:5, 6:4, 7:3, 8:2 and 9:1.

[2] = Viscosity experiments: absorption and emission spectra in glycerol-ethanol mixtures; details: glycerol-ethanol mixtures
Method: as §1, §2

[3] = UV absorption and fluorescence emission spectra in different solvents; details: for λabs1 maximum absorption wavelength / λabs2 maximum absorption wavelength / λem1 maximum emission wavelength / λem2 maximum emission wavelength: 1 μM; for Φ1 fluorescence quantum yield / Φ2 fluorescence quantum yield / Φ fluorescence quantum yield (single peak): reference Rhodamine B in ethanol
Method: Firstly, stock solutions of 4 and 7 in DMSO were prepared respectively. Then sample solutions of 1 μM were prepared by diluting the mother liquors with corresponding chromatography grade solvent. UV absorption and fluorescence emission spectra of the sample solutions in different solvents were measured at room temperature, the results were shown in FIGS. 1A and 1B, respectively.

CCN1/C(=C/C=C(C=O)/C=C/C2=[N+](CC)c3ccccc3C2(C)C)C(C)(C)c2ccccc21 [compound 4, 1,5-di(1-N-ethyl-3,3-dimethyl-2,3-H-lindoline)-3-formyl-1,3,5-pentatriene chloride quaternary ammonium salt cyanine dye]
fluorescence lifetime ([1]; 99% glycerol solution): 1450 ps
fluorescence lifetime ([1]; pure ethanol): lower than 50 ps
sensitivity of fluorescence intensity to solvent viscosity [2]: quite sensitive to solvent viscosity
Δλ1 Stokes Shift (λem1 − λabs1) ([3]; DMSO): 51 nm
Δλ2 Stokes Shift (λem2 − λabs2) ([3]; DMSO): 17 nm
Δλ3 Stokes Shift (λem2 − λabs1) ([3]; DMSO): 230 nm
ε1 molar extinction coefficient ([3]; DMSO): 15000 L/cm/mol
ε2 molar extinction coefficient ([3]; DMSO): 108500 L/cm/mol
λabs1 maximum absorption wavelength ([3]; DMSO): 400 nm
λabs2 maximum absorption wavelength ([3]; DMSO): 613 nm
λem1 maximum emission wavelength ([3]; DMSO): 451 nm
λem2 maximum emission wavelength ([3]; DMSO): 630 nm
Φ1 fluorescence quantum yield ([3]; DMSO): 0.0158
Φ2 fluorescence quantum yield ([3]; DMSO): 0.0224
Δλ1 Stokes Shift (λem1 − λabs1) ([3]; acetonitrile): 54 nm
Δλ2 Stokes Shift (λem2 − λabs2) ([3]; acetonitrile): 19 nm
Δλ3 Stokes Shift (λem2 − λabs1) ([3]; acetonitrile): 229 nm
ε1 molar extinction coefficient ([3]; acetonitrile): 11200 L/cm/mol
ε2 molar extinction coefficient ([3]; acetonitrile): 93500 L/cm/mol
λabs1 maximum absorption wavelength ([3]; acetonitrile): 397 nm
λabs2 maximum absorption wavelength ([3]; acetonitrile): 607 nm
λem1 maximum emission wavelength ([3]; acetonitrile): 451 nm
λem2 maximum emission wavelength ([3]; acetonitrile): 626 nm
Φ1 fluorescence quantum yield ([3]; acetonitrile): 0.0062
Φ2 fluorescence quantum yield ([3]; acetonitrile): 0.0071
Δλ1 Stokes Shift (λem1 − λabs1) ([3]; dichloromethane): 55 nm
Δλ2 Stokes Shift (λem2 − λabs2) ([3]; dichloromethane): 29 nm
Δλ3 Stokes Shift (λem2 − λabs1) ([3]; dichloromethane): 255 nm
ε1 molar extinction coefficient ([3]; dichloromethane): 16000 L/cm/mol
ε2 molar extinction coefficient ([3]; dichloromethane): 89700 L/cm/mol
λabs1 maximum absorption wavelength ([3]; dichloromethane): 399 nm
λabs2 maximum absorption wavelength ([3]; dichloromethane): 625 nm
λem1 maximum emission wavelength ([3]; dichloromethane): 454 nm
λem2 maximum emission wavelength ([3]; dichloromethane): 654 nm
Φ1 fluorescence quantum yield ([3]; dichloromethane): 0.0060
Φ2 fluorescence quantum yield ([3]; dichloromethane): 0.0231
Δλ1 Stokes Shift (λem1 − λabs1) ([3]; ethanol): 52 nm
Δλ2 Stokes Shift (λem2 − λabs2) ([3]; ethanol): 40 nm
Δλ3 Stokes Shift (λem2 − λabs1), pseudo-Stokes Shift ([3]; ethanol): 254 nm
ε1 molar extinction coefficient ([3]; ethanol): 13800 L/cm/mol
ε2 molar extinction coefficient ([3]; ethanol): 97500 L/cm/mol
λabs1 maximum absorption wavelength ([3]; ethanol): 399 nm
λabs2 maximum absorption wavelength ([3]; ethanol): 613 nm
λem1 maximum emission wavelength ([3]; ethanol): 451 nm
λem2 maximum emission wavelength ([3]; ethanol): 653 nm
Φ1 fluorescence quantum yield ([3]; ethanol): 0.0050
Φ2 fluorescence quantum yield ([3]; ethanol): 0.0108
sensitivity to solvent polarity ([3]; low-viscosity solvents of different polarity): insensitive to solvent polarity
Δλ1 Stokes Shift (λem1 − λabs1) ([3]; methanol): 51 nm
Δλ2 Stokes Shift (λem2 − λabs2) ([3]; methanol): 42 nm
Δλ3 Stokes Shift (λem2 − λabs1) ([3]; methanol): 250 nm
ε1 molar extinction coefficient ([3]; methanol): 14500 L/cm/mol
ε2 molar extinction coefficient ([3]; methanol): 99300 L/cm/mol
λabs1 maximum absorption wavelength ([3]; methanol): 400 nm
λabs2 maximum absorption wavelength ([3]; methanol): 608 nm
λem1 maximum emission wavelength ([3]; methanol): 451 nm
λem2 maximum emission wavelength ([3]; methanol): 650 nm
Φ1 fluorescence quantum yield ([3]; methanol): 0.0050
Φ2 fluorescence quantum yield ([3]; methanol): 0.0079
absorption peak, longer wavelength ([3]; solvent not stated): 610 nm
absorption peak, shorter wavelength ([3]; solvent not stated): 400 nm
emission peak, longer wavelength ([3]; solvent not stated): 650 nm
emission peak, shorter wavelength ([3]; solvent not stated): 456 nm and 460 nm
Δλ1 Stokes Shift (λem1 − λabs1) ([3]; water): 47 nm
Δλ2 Stokes Shift (λem2 − λabs2) ([3]; water): 43 nm
Δλ3 Stokes Shift (λem2 − λabs1) ([3]; water): 230 nm
ε1 molar extinction coefficient ([3]; water): 16800 L/cm/mol
ε2 molar extinction coefficient ([3]; water): 62100 L/cm/mol
λabs1 maximum absorption wavelength ([3]; water): 413 nm
λabs2 maximum absorption wavelength ([3]; water): 600 nm
λem1 maximum emission wavelength ([3]; water): 460 nm
λem2 maximum emission wavelength ([3]; water): 643 nm
Φ1 fluorescence quantum yield ([3]; water): 0.0023
Φ2 fluorescence quantum yield ([3]; water): 0.0032

CCN1/C(=C/C=C/C=C/C2=[N+](CC)c3ccccc3C2(C)C)C(C)(C)c2ccccc21 [ethyl-Cy5, reference compound]
Δλ Stokes Shift (single peak) ([3]; DMSO): 13 nm
ε molar extinction coefficient (single peak) ([3]; DMSO): 272000 L/cm/mol
λabs maximum absorption wavelength (single peak) ([3]; DMSO): 655 nm
λem maximum emission wavelength (single peak) ([3]; DMSO): 668 nm
Φ fluorescence quantum yield (single peak) ([3]; DMSO): 0.33
Δλ Stokes Shift (single peak) ([3]; THF): 9 nm
ε molar extinction coefficient (single peak) ([3]; THF): 227000 L/cm/mol
λabs maximum absorption wavelength (single peak) ([3]; THF): 653 nm
λem maximum emission wavelength (single peak) ([3]; THF): 662 nm
Φ fluorescence quantum yield (single peak) ([3]; THF): 0.37
Δλ Stokes Shift (single peak) ([3]; dichloromethane): 6 nm
ε molar extinction coefficient (single peak) ([3]; dichloromethane): 306000 L/cm/mol
λabs maximum absorption wavelength (single peak) ([3]; dichloromethane): 661 nm
λem maximum emission wavelength (single peak) ([3]; dichloromethane): 671 nm
Φ fluorescence quantum yield (single peak) ([3]; dichloromethane): 0.29
Δλ Stokes Shift (single peak) ([3]; ethanol): 11 nm
ε molar extinction coefficient (single peak) ([3]; ethanol): 302000 L/cm/mol
λabs maximum absorption wavelength (single peak) ([3]; ethanol): 652 nm
λem maximum emission wavelength (single peak) ([3]; ethanol): 663 nm
Φ fluorescence quantum yield (single peak) ([3]; ethanol): 0.27
Δλ Stokes Shift (single peak) ([3]; methanol): 10 nm
ε molar extinction coefficient (single peak) ([3]; methanol): 259000 L/cm/mol
λabs maximum absorption wavelength (single peak) ([3]; methanol): 649 nm
λem maximum emission wavelength (single peak) ([3]; methanol): 659 nm
Φ fluorescence quantum yield (single peak) ([3]; methanol): 0.22
Δλ Stokes Shift (single peak) ([3]; water): 8 nm
ε molar extinction coefficient (single peak) ([3]; water): 227000 L/cm/mol
λabs maximum absorption wavelength (single peak) ([3]; water): 648 nm
λem maximum emission wavelength (single peak) ([3]; water): 656 nm
Φ fluorescence quantum yield (single peak) ([3]; water): 0.13
